The source of these data is ChEMBL document CHEMBL4651402, “Screening of ~5500 FDA-approved drugs and clinical candidates for anti-SARS-CoV-2 activity” (2021).

In series [1] the test system is SARS-CoV-2. The series can be described thus: microbe, parasite or virus in culture. The following applies: Severe acute respiratory syndrome coronavirus 2, Vero C1008, 48 h.
The test system of series [2] is SARS-CoV-2. In words: microbe, parasite or virus in culture. It counts as functional, organism-based, Chlorocebus sabaeus, Vero C1008. The following applies: Severe acute respiratory syndrome coronavirus 2, Vero C1008, 48 h.
The nature of another series: in vitro. Conditions: chlorocebus sabaeus, Vero E6 (Vero C1008) cells.

On to `C#C[C@]1(O)CC[C@H]2[C@@H]3CCC4=CCCC[C@@H]4[C@H]3CC[C@@]21C` [LYNESTRENOL], for which the IC50 in the series on SARS-CoV-2 [1], with SARS-CoV-2 [1] (read-out: pIC50 (converted)), in the series on SARS-CoV-2 [2] (read-out: IC50) and in the series with SARS-CoV-2 [2] (read-out: pIC50 (converted)) was more than 50.1 µM each time. The CC50 at 48 h in the series “in vitro” (CC50) and in “in vitro” (pCC50) was 10.5 µM throughout.

For `c1ccc2c(c1)Sc1ccccc1N2CC1CN2CCC1CC2` (stereo not given) [MEQUITAZINE], the IC50 was 7.76 µM in the series with SARS-CoV-2 [1], 7.76 µM in the series with SARS-CoV-2 [1] (read-out: pIC50 (converted)), more than 100 µM in the series on SARS-CoV-2 [2] (read-out: IC50) and more than 100 µM in the series on SARS-CoV-2 [2] (read-out: pIC50 (converted)). The CC50 at 48 h in the series “in vitro” (CC50) and in the series “in vitro” (pCC50) was 7.76 µM each time.

As for `CN1CCC(CN2c3ccccc3Sc3ccccc32)C1` (stereo not given) [METHDILAZINE], the IC50 was 16.2 µM with SARS-CoV-2 [1], 16.2 µM in the series on SARS-CoV-2 [1] (read-out: pIC50 (converted)), more than 100 µM with SARS-CoV-2 [2] (read-out: IC50) and more than 100 µM with SARS-CoV-2 [2] (read-out: pIC50 (converted)). For the same molecule, the CC50 at 48 h in “in vitro” (CC50) and in “in vitro” (pCC50) was 14.8 µM each time.

For the molecule `CN1CCCC(CC2c3ccccc3Sc3ccccc32)C1` (stereo not given) [METHIXENE], the IC50 in the series on SARS-CoV-2 [1] is 9.55 µM; with SARS-CoV-2 [1] (read-out: pIC50 (converted)), 9.55 µM; with SARS-CoV-2 [2] (read-out: IC50), more than 100 µM; with SARS-CoV-2 [2] (read-out: pIC50 (converted)) it was more than 100 µM. Further, the results for the cytotoxic concentration (CC50) at 48 h in the series “in vitro” (CC50) and in the series “in vitro” (pCC50) were 10.1 µM and 10 µM, respectively.

On to `COc1ccc2c(c1)N(CCCN(C)C)c1ccccc1S2` [METHOXYPROMAZINE], for which the IC50 with SARS-CoV-2 [1] is more than 20 µM; in the series on SARS-CoV-2 [1] (read-out: pIC50 (converted)), more than 20 µM; in the series on SARS-CoV-2 [2] (read-out: IC50) it was more than 100 µM; in the series on SARS-CoV-2 [2] (read-out: pIC50 (converted)), more than 100 µM. For the same molecule, the 50% cytotoxic concentration (CC50) at 48 h in the series “in vitro” (CC50) and in “in vitro” (pCC50) was 14.1 µM each time.

Regarding `CCC1(CC)C(=O)NCC(C)C1=O` (stereo not given) [METHYPRYLON], the IC50 in the series on SARS-CoV-2 [1] is 18.4 µM; in the series with SARS-CoV-2 [1] (read-out: pIC50 (converted)) it was 18.2 µM; in the series on SARS-CoV-2 [2] (read-out: IC50) it was more than 25.1 µM; with SARS-CoV-2 [2] (read-out: pIC50 (converted)) it was more than 25.1 µM. In addition, the CC50 at 48 h in the series “in vitro” (CC50) and in “in vitro” (pCC50) was more than 25.1 µM in each case.

`COc1cc(C(=O)OCCN2CCN(CCCN3c4ccccc4Sc4ccc(Cl)cc43)CC2)cc(OC)c1OC` [METOFENAZATE]: the IC50 in the series on SARS-CoV-2 [1] was 18.6 µM; with SARS-CoV-2 [1] (read-out: pIC50 (converted)), 18.6 µM; in the series with SARS-CoV-2 [2] (read-out: IC50) it was more than 100 µM; in the series on SARS-CoV-2 [2] (read-out: pIC50 (converted)), more than 100 µM. Besides, the CC50 at 48 h in “in vitro” (CC50) and in the series “in vitro” (pCC50) was more than 100 µM in each case.

Take `O=C(c1ccc(F)cc1)C1CCN(CCCn2c(=O)[nH]c3cc(Cl)ccc32)CC1` [MILENPERONE]: the IC50 with SARS-CoV-2 [1], with SARS-CoV-2 [1] (read-out: pIC50 (converted)), in the series on SARS-CoV-2 [2] (read-out: IC50) and in the series with SARS-CoV-2 [2] (read-out: pIC50 (converted)) was more than 100 µM in each case. For the same molecule, the CC50 at 48 h in “in vitro” (CC50) and in the series “in vitro” (pCC50) was 32.4 µM each time.

As for `COc1ccc2cc(-c3cc(-c4cc(Cl)cc(Cl)c4)nn3[C@@H](C)c3ccc(C(=O)NCCC(=O)O)cc3)ccc2c1` [MK-0893], the IC50 in the series on SARS-CoV-2 [1], with SARS-CoV-2 [1] (read-out: pIC50 (converted)), in the series on SARS-CoV-2 [2] (read-out: IC50) and in the series on SARS-CoV-2 [2] (read-out: pIC50 (converted)) was more than 100 µM in each case. Besides, the CC50 at 48 h in the series “in vitro” (CC50) is approximately 18.8 µM; in “in vitro” (pCC50) it was approximately 18.6 µM.

For the molecule `NC(CO)(CO)CCc1ccc(Sc2cccc(OCc3ccccc3)c2)cc1Cl` [MOCRAVIMOD], the IC50 was 3.31 µM in the series on SARS-CoV-2 [1], 3.31 µM in the series with SARS-CoV-2 [1] (read-out: pIC50 (converted)), more than 100 µM in the series with SARS-CoV-2 [2] (read-out: IC50) and more than 100 µM in the series with SARS-CoV-2 [2] (read-out: pIC50 (converted)). Further, the CC50 at 48 h in the series “in vitro” (CC50) was 3.06 µM; in “in vitro” (pCC50), 3.02 µM.

Consider `O=C1NC2CCCCN2C12CCN(CCCN1c3ccccc3CCc3ccc(Cl)cc31)CC2` (stereo not given) [MOSAPRAMINE], for which the IC50 is 7.41 µM in the series with SARS-CoV-2 [1], 7.41 µM in the series with SARS-CoV-2 [1] (read-out: pIC50 (converted)), more than 100 µM in the series with SARS-CoV-2 [2] (read-out: IC50) and more than 100 µM with SARS-CoV-2 [2] (read-out: pIC50 (converted)). For the same molecule, the CC50 at 48 h in “in vitro” (CC50) and in the series “in vitro” (pCC50) was 8.13 µM throughout.

Consider `CCCCCCC(C)(C)c1cc(O)c2c(c1)OC(C)(C)C1CCC(=O)CC21` (stereo not given) [NABILONE], for which the IC50 in the series on SARS-CoV-2 [1] is 8.91 µM; in the series on SARS-CoV-2 [1] (read-out: pIC50 (converted)), 8.91 µM; in the series with SARS-CoV-2 [2] (read-out: IC50), more than 25.1 µM; with SARS-CoV-2 [2] (read-out: pIC50 (converted)), more than 25.1 µM. The CC50 at 48 h in the series “in vitro” (CC50) is 11.1 µM; in “in vitro” (pCC50), 11 µM.

Take `COc1ccc2c(c1)CCC(c1ccccc1)=C2c1ccc(OCCN2CCCC2)cc1` [NAFOXIDINE]: the IC50 with SARS-CoV-2 [1], in the series on SARS-CoV-2 [1] (read-out: pIC50 (converted)), in the series with SARS-CoV-2 [2] (read-out: IC50) and in the series with SARS-CoV-2 [2] (read-out: pIC50 (converted)) was more than 100 µM in each case. The CC50 at 48 h in the series “in vitro” (CC50) was 3.85 µM; in the series “in vitro” (pCC50) it was 3.8 µM.

As to `CC1(C)CCC(c2ccc(Cl)cc2)=C(CN2CCN(c3ccc(C(=O)NS(=O)(=O)c4ccc(N[C@H](CCN5CCOCC5)CSc5ccccc5)c(S(=O)(=O)C(F)(F)F)c4)cc3)CC2)C1` [NAVITOCLAX], the IC50 in the series with SARS-CoV-2 [1], in the series with SARS-CoV-2 [1] (read-out: pIC50 (converted)), in the series on SARS-CoV-2 [2] (read-out: IC50) and in the series with SARS-CoV-2 [2] (read-out: pIC50 (converted)) was more than 100 µM throughout. Besides, the figures for the CC50 at 48 h in the series “in vitro” (CC50) and in “in vitro” (pCC50) were 4.73 µM and 4.68 µM, respectively.

`CC(Cc1ccc(O)c(O)c1)C(C)Cc1ccc(O)c(O)c1` (stereo not given) [NORDIHYDROGUAIARETIC ACID]: the IC50 in the series on SARS-CoV-2 [1], with SARS-CoV-2 [1] (read-out: pIC50 (converted)), in the series on SARS-CoV-2 [2] (read-out: IC50) and in the series with SARS-CoV-2 [2] (read-out: pIC50 (converted)) was more than 100 µM throughout. Further, the CC50 at 48 h in the series “in vitro” (CC50) and in “in vitro” (pCC50) was 37.2 µM in each case.

As a reminder, the CC50 is the concentration giving 50% cytotoxicity. Read a low CC50 as greater toxicity to the cells.
